Numbers after ± are expanded uncertainties.
Experiment: xn = mol fraction of the nth substance listed
Conditions: 101 kPa, Liquid; for speed of sound: Frequency=3 MHz, Sing-around technique in a fixed-path interferometer; for mass density: Vibrating tube method; for electrical conductivity: Alternating current cell with electrodes

C[C@H](O)C(=O)[O-].C[N+](C)(C)CCO + O
Conditions | electrical conductivity [S/m] | mass density [kg/m3] | speed of sound [m/s]
308.15 K, x1 = 0.0258 | – | 1030.91 ± 0.41 | –
308.15 K, x1 = 0.0511 | – | 1055.74 ± 0.39 | –
308.15 K, x1 = 0.074 | – | 1074.99 ± 0.3 | –
308.15 K, x1 = 0.1027 | – | 1089.55 ± 0.24 | –
308.15 K, x1 = 0.1443 | – | 1102.31 ± 0.28 | –
308.15 K, x1 = 0.1965 | – | 1113.02 ± 0.4 | –
308.15 K, x1 = 0.2705 | – | 1122.29 ± 0.65 | –
308.15 K, x1 = 0.2957 | – | 1124.2 ± 0.74 | –
308.15 K, x1 = 0.3897 | – | 1129.04 ± 1.2 | –
308.15 K, x1 = 0.5347 | – | 1131.34 ± 2.1 | –
308.15 K, x1 = 0.6044 | – | 1132.01 ± 2.6 | –
308.15 K, x1 = 0.6931 | – | 1131.57 ± 3.4 | 1899 ± 3.8
308.15 K, x1 = 0.7565 | – | 1132.02 ± 4 | 1896.1 ± 4
308.15 K, x1 = 0.8375 | – | 1132.67 ± 4.9 | 1895.2 ± 4.4
308.15 K, x1 = 0.8996 | – | 1133.39 ± 5.7 | 1894 ± 4.7
308.15 K, x1 = 0.94 | – | 1133.76 ± 6.2 | 1890.3 ± 4.9
308.15 K, x1 = 0.9611 | – | 1133.93 ± 6.5 | 1886.6 ± 5
313.15 K, x1 = 0.0258 | 4.38 ± 0.26 | 1028.62 ± 0.41 | 1673.4 ± 2
313.15 K, x1 = 0.0511 | 4.67 ± 0.28 | 1053.12 ± 0.39 | 1772.3 ± 1.9
313.15 K, x1 = 0.074 | 4.09 ± 0.25 | 1072.09 ± 0.3 | 1843.8 ± 1.6
313.15 K, x1 = 0.1027 | 3.31 ± 0.2 | 1086.48 ± 0.24 | 1890.1 ± 1.5
313.15 K, x1 = 0.1443 | – | 1099.08 ± 0.28 | 1927.4 ± 1.6
313.15 K, x1 = 0.1965 | 1.65 ± 0.099 | 1109.75 ± 0.4 | 1935.7 ± 1.7
313.15 K, x1 = 0.2705 | – | 1118.95 ± 0.64 | 1932.5 ± 2
313.15 K, x1 = 0.2957 | 0.735 ± 0.044 | 1120.95 ± 0.74 | 1931.4 ± 2.1
313.15 K, x1 = 0.3897 | – | 1125.94 ± 1.2 | 1919.3 ± 2.4
313.15 K, x1 = 0.5347 | 0.234 ± 0.014 | 1128.21 ± 2.1 | 1901 ± 3
313.15 K, x1 = 0.6044 | 0.169 ± 0.01 | 1128.91 ± 2.6 | 1896.5 ± 3.4
313.15 K, x1 = 0.6931 | 0.103 ± 0.006 | 1128.31 ± 3.4 | 1885.6 ± 3.8
313.15 K, x1 = 0.7565 | – | 1128.77 ± 4 | 1883 ± 4
313.15 K, x1 = 0.798 | 0.069 ± 0.004 | – | –
313.15 K, x1 = 0.8375 | – | 1129.44 ± 4.9 | 1882.1 ± 4.4
313.15 K, x1 = 0.8996 | 0.071 ± 0.004 | 1130.23 ± 5.6 | 1880.5 ± 4.7
313.15 K, x1 = 0.94 | – | 1130.63 ± 6.1 | 1876.1 ± 4.9
313.15 K, x1 = 0.9611 | – | 1130.81 ± 6.4 | 1872 ± 5
318.15 K, x1 = 0.0258 | 4.99 ± 0.3 | 1026.22 ± 0.4 | 1674 ± 2
318.15 K, x1 = 0.0511 | 5.07 ± 0.3 | 1050.42 ± 0.38 | 1768.1 ± 1.9
318.15 K, x1 = 0.074 | 4.55 ± 0.27 | 1069.15 ± 0.29 | 1835.9 ± 1.6
318.15 K, x1 = 0.1027 | 3.83 ± 0.23 | 1083.38 ± 0.24 | 1879.8 ± 1.5
318.15 K, x1 = 0.1443 | – | 1095.34 ± 0.28 | 1914.8 ± 1.6
318.15 K, x1 = 0.1965 | 1.92 ± 0.12 | 1106.48 ± 0.4 | 1922.8 ± 1.7
318.15 K, x1 = 0.2705 | – | 1115.26 ± 0.64 | 1919.8 ± 2
318.15 K, x1 = 0.2957 | 0.898 ± 0.054 | 1117.03 ± 0.73 | 1918.3 ± 2.1
318.15 K, x1 = 0.3897 | – | 1122.53 ± 1.2 | 1906.8 ± 2.4
318.15 K, x1 = 0.5347 | 0.262 ± 0.016 | 1125.08 ± 2.1 | 1888 ± 3
318.15 K, x1 = 0.6044 | 0.197 ± 0.012 | 1125.81 ± 2.6 | 1883.5 ± 3.4
318.15 K, x1 = 0.6931 | 0.118 ± 0.007 | 1125 ± 3.4 | 1872.5 ± 3.8
318.15 K, x1 = 0.7565 | – | 1125.55 ± 4 | 1870.1 ± 4
318.15 K, x1 = 0.798 | 0.103 ± 0.006 | – | –
318.15 K, x1 = 0.8375 | – | 1126.28 ± 4.8 | 1869.1 ± 4.4
318.15 K, x1 = 0.8996 | 0.084 ± 0.005 | 1127.07 ± 5.6 | 1867.3 ± 4.7
318.15 K, x1 = 0.94 | – | 1127.56 ± 6.1 | 1862.4 ± 4.9
318.15 K, x1 = 0.9611 | – | 1127.75 ± 6.4 | 1858 ± 5
323.15 K, x1 = 0.0258 | 5.23 ± 0.31 | 1023.68 ± 0.4 | 1673.8 ± 1.9
323.15 K, x1 = 0.0511 | 5.47 ± 0.33 | 1047.63 ± 0.38 | 1763.2 ± 1.9
323.15 K, x1 = 0.074 | 5.09 ± 0.31 | 1066.16 ± 0.29 | 1827.6 ± 1.6
323.15 K, x1 = 0.1027 | 4.26 ± 0.26 | 1080.24 ± 0.24 | 1869.2 ± 1.5
323.15 K, x1 = 0.1443 | – | 1092.47 ± 0.27 | 1907 ± 1.6
323.15 K, x1 = 0.1965 | 2.18 ± 0.13 | 1103.2 ± 0.39 | 1910 ± 1.7
323.15 K, x1 = 0.2705 | – | 1112.52 ± 0.63 | 1911.6 ± 2
323.15 K, x1 = 0.2957 | 1.01 ± 0.061 | 1114.46 ± 0.73 | 1905.2 ± 2.1
323.15 K, x1 = 0.3897 | – | 1119.8 ± 1.2 | 1898.7 ± 2.4
323.15 K, x1 = 0.5347 | 0.318 ± 0.019 | 1121.95 ± 2.1 | 1875 ± 3
323.15 K, x1 = 0.6044 | 0.235 ± 0.014 | 1122.71 ± 2.6 | 1870.6 ± 3.4
323.15 K, x1 = 0.6931 | 0.151 ± 0.009 | 1121.7 ± 3.3 | 1859.6 ± 3.8
323.15 K, x1 = 0.7565 | – | 1122.21 ± 3.9 | 1863 ± 4
323.15 K, x1 = 0.798 | 0.134 ± 0.008 | – | –
323.15 K, x1 = 0.8375 | – | 1123.02 ± 4.8 | 1861.8 ± 4.4
323.15 K, x1 = 0.8996 | 0.144 ± 0.009 | 1123.98 ± 5.6 | 1854.4 ± 4.7
323.15 K, x1 = 0.94 | – | 1124.48 ± 6.1 | 1854.3 ± 4.9
323.15 K, x1 = 0.9611 | – | 1124.69 ± 6.3 | 1849.7 ± 5
